Assay [1] has as its target T1, ecATCase (Escherichia coli, UniProt P0A786).
T1 sequence (P0A786 2-311): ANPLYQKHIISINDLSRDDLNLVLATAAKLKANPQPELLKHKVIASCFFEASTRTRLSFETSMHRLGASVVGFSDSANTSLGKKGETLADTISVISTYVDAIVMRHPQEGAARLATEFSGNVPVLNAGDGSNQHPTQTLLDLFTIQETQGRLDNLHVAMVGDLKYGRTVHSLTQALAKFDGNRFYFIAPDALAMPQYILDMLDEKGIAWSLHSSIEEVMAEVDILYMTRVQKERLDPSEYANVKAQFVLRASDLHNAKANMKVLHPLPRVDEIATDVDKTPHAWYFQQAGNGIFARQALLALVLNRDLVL
The assay is described as follows: ITC. The class given is binding. The conditions noted are these: 50 mM Tris-acetate pH 8.3, no Asp.

In assay [2] the target is T1, ecATCase. The experiment in a line: colorimetric ATCase activity assay, dose-response fit. The class given is biochemical.
The target of another assay is T2, huATCase (Homo sapiens, UniProt P27708).
T2 sequence (P27708 1915-2225 limits assumed): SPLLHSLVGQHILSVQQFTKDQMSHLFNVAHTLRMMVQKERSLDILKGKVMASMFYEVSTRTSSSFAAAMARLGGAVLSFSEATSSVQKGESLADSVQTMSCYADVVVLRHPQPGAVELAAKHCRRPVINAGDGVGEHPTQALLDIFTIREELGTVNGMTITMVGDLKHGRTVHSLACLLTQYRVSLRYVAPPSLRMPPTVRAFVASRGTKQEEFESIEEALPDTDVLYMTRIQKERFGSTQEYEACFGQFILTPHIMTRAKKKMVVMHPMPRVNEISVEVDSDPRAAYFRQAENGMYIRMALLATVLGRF
Described as above. The class given is biochemical.

Usually IC50 stands for the point on the concentration scale where inhibition reaches its midpoint. Lower therefore signals greater potency.

As for `NC(=O)OP(=O)(O)O` [CP], at ecATCase [1], the KD entry is on record as “all ATCase variants were able to bind CP”.

On to `O=c1[nH]c2ccc(Nc3nc4nonc4nc3N/N=C/c3ccccc3OCc3ccc(Cl)cc3Cl)cc2[nH]1` [YD19], for which the IC50 turned out to be 1.8 ± 0.4 µM on ecATCase [2] and 4.1 ± 1.9 µM at huATCase.

Take `CC(C(=O)Oc1ccc(C2C3=C(Nc4[nH]c(=O)n(C)c(=O)c42)c2ccccc2C3=O)cc1)N1C(=O)c2ccccc2C1=O` (centres unmarked) [YD21]: the IC50 against ecATCase [2] was determined as 5 ± 1.4 µM; on huATCase, 15.4 ± 1.6 µM.

The values above are taken from publication doi:10.1101/662718v1 (biorxiv, 2019).
